This is an account of results in patent US8530667B2, “Herbicides” (Syngenta Limited, priority 2007, dated 2013).

Holding throughout (assay type): in vivo
In experiment [1] the test system is Alopecurus myosuroides (ALOMY). Nature of the experiment: Example B pre-emergence herbicidal activity, glasshouse pot test. As to conditions: 312 h, Rate 250 g/ha, evaluated after 13 days, read-out: Pre-Emergence Activity ALOMY (100=total damage to plant; 0=no damage to plant). On the procedure:
(§1) Seeds of a variety of test species were sown in standard soil in pots. After cultivation for one day (pre-emergence) or after 8 days cultivation (post-emergence) under controlled conditions in a glasshouse (at 24/16° C., day/night; 14 hours light; 65% humidity), the plants were sprayed with an aqueous spray solution derived from the formulation of the technical active ingredient in acetone/water (50:50) solution containing 0.5% Tween 20 (polyoxyethelyene sorbitan monolaurate, CAS RN 9005-64-5). The test plants were then grown in a glasshouse under controlled conditions in a glasshouse (at 24/16° C., day/night; 14 hours light; 65% humidity) and watered twice daily. After 13 days for pre and post-emergence, the test was evaluated (100=total damage to plant; 0=no damage to plant). Alopecurus myosuroides (ALOMY), Avena fatua (AVEFA), Setaria faberi (SETFA), Echinochloa crus-galli (ECHCG) and Amaranthus retoflexus (AMARE)

For experiment [2], the system named is Amaranthus retoflexus (AMARE). The experiment is described as above. The settings on record: Amaranthus retroflexus, 312 h, Rate 250 g/ha, evaluated after 13 days, read-out: Pre-Emergence Activity AMARE (100=total damage to plant; 0=no damage to plant). On the procedure:
as §1

The test system of experiment [3] is Avena fatua (AVEFA). The description is as above. As to conditions: 312 h, Rate 250 g/ha, evaluated after 13 days, read-out: Pre-Emergence Activity AVEFA (100=total damage to plant; 0=no damage to plant). On the procedure: as §1
Experiment [4] deals with Echinochloa crus-galli (ECHCG). Described as above. The settings on record: 312 h, Rate 250 g/ha, evaluated after 13 days, read-out: Pre-Emergence Activity ECHCG (100=total damage to plant; 0=no damage to plant). On the procedure: as §1
The subject of experiment [5] is Setaria faberi (SETFA). Described as above. The settings on record: 312 h, Rate 250 g/ha, evaluated after 13 days, read-out: Pre-Emergence Activity SETFA (100=total damage to plant; 0=no damage to plant). On the procedure: as §1
Experiment [6] relates to Alopecurus myosuroides (ALOMY). Nature of the experiment: Example B post-emergence herbicidal activity, glasshouse pot test. The settings on record: 312 h, rate 250 g/ha, evaluated after 13 days, read-out: Post-emergence activity ALOMY (100=total damage to plant; 0=no damage to plant). On the procedure: as §1
The test system of experiment [7] is Amaranthus retoflexus (AMARE). The experiment is described as above. As to conditions: Amaranthus retroflexus, 312 h, rate 250 g/ha, evaluated after 13 days, read-out: Post-emergence activity AMARE (100=total damage to plant; 0=no damage to plant). On the procedure: as §1
Experiment [8] deals with Avena fatua (AVEFA). Described as above. The settings on record: 312 h, rate 250 g/ha, evaluated after 13 days, read-out: Post-emergence activity AVEFA (100=total damage to plant; 0=no damage to plant). On the procedure:
as §1

Experiment [9] concerns Echinochloa crus-galli (ECHCG). Described as above. The settings on record: 312 h, rate 250 g/ha, evaluated after 13 days, read-out: Post-emergence activity ECHCG (100=total damage to plant; 0=no damage to plant). On the procedure: as §1
Experiment [10] concerns Setaria faberi (SETFA). The description is as above. The settings on record: 312 h, rate 250 g/ha, evaluated after 13 days, read-out: Post-emergence activity SETFA (100=total damage to plant; 0=no damage to plant). On the procedure: as §1

Each structure is given as a SMILES string.

Take `Cc1sc(-c2ccc(OC(F)F)cc2)nc1C1C(=O)[C@@H]2[C@H](C1=O)[C@H]1CC[C@@H]2O1` (some centres unmarked) [Compound T41]: the pest or weed control at 250 g/ha in [1] worked out at 100%; in [2], 0%; in [3], 30%; in experiment [4], 100%; in experiment [5], 100%; in experiment [6] it was 100%. Moreover, the pest or weed control at 250 g/ha was found to be 0% in experiment [7], 90% in experiment [8], 100% in experiment [9] and 100% in experiment [10].
As to `CCc1sc(-c2ccc(OC(F)F)cc2)nc1C1C(=O)[C@@H]2[C@H](C1=O)[C@H]1CC[C@@H]2O1` (some centres unmarked) [Compound T42], the pest or weed control at 250 g/ha turned out to be 90% in experiment [1]; 0% in experiment [2]; 30% in [3]; 90% in experiment [4]; 100% in experiment [5]; 100% in experiment [6]. Also, the pest or weed control at 250 g/ha in experiment [7] amounted to 0%; in experiment [8], 100%; in experiment [9] it was 100%; in experiment [10], 100%.
Turning to `CCc1sc(-c2ccc(Br)cn2)nc1C1C(=O)[C@@H]2[C@H](C1=O)[C@H]1CC[C@@H]2O1` (some centres unmarked) [Compound T43], the pest or weed control at 250 g/ha in experiment [1] came to 0%; in [2], 0%; in [3], 0%; in experiment [4], 80%; in experiment [5] it was 60%; in [6] it was 90%. The pest or weed control at 250 g/ha came out at 0% in experiment [7], 100% in experiment [8], 100% in experiment [9] and 100% in experiment [10].
Take `CCc1sc(-c2ccc(Cl)cc2Cl)nc1C1C(=O)[C@@H]2[C@H](C1=O)[C@H]1CC[C@@H]2O1` (some centres unmarked) [Compound T45]: the pest or weed control at 250 g/ha in experiment [1] came to 90%; in [2], 0%; in experiment [3], 60%; in experiment [4], 100%; in experiment [5], 100%; in [6], 100%. Further, the pest or weed control at 250 g/ha is 0% in experiment [7], 100% in experiment [8], 100% in experiment [9] and 100% in experiment [10].
With `CCc1sc(-c2cc(F)c(Cl)cc2Cl)nc1C1C(=O)[C@@H]2[C@H](C1=O)[C@H]1CC[C@@H]2O1` (some centres unmarked) [Compound T47], the pest or weed control at 250 g/ha in experiment [1] stood at 90%; in [2], 0%; in experiment [3], 80%; in experiment [4], 90%; in experiment [5] it was 100%; in [6] it was 100%. For the same molecule, the pest or weed control at 250 g/ha in [7] worked out at 0%; in [8], 100%; in experiment [9], 100%; in experiment [10] it was 100%.
With `CSc1ccc(-c2nc(C3C(=O)[C@@H]4[C@H](C3=O)[C@H]3CC[C@@H]4O3)c(C)s2)cc1` (some centres unmarked) [Compound T48], the pest or weed control at 250 g/ha in experiment [1] turned out to be 40%; in experiment [2] it was 0%; in [3], 20%; in experiment [4], 70%; in [5], 90%; in [6], 60%. Moreover, the pest or weed control at 250 g/ha in experiment [7] came to 40%; in experiment [8], 40%; in experiment [9] it was 100%; in experiment [10] it was 90%.
`Cc1sc(-c2ccc([S+](C)[O-])cc2)nc1C1C(=O)[C@@H]2[C@H](C1=O)[C@H]1CC[C@@H]2O1` (some centres unmarked) [Compound T49]: the pest or weed control at 250 g/ha turned out to be 20% in experiment [1]; 0% in experiment [2]; 0% in experiment [3]; 70% in [4]; 90% in experiment [5]; 50% in experiment [6]. The pest or weed control at 250 g/ha in experiment [7] stood at 0%; in [8], 30%; in experiment [9] it was 100%; in experiment [10], 90%.
Regarding `CCc1sc(-c2ccc(SC)cc2)nc1C1C(=O)[C@@H]2[C@H](C1=O)[C@H]1CC[C@@H]2O1` (some centres unmarked) [Compound T50], the pest or weed control at 250 g/ha in experiment [1] was 40%; in [2], 0%; in [3] it was 0%; in experiment [4], 90%; in experiment [5] it was 90%; in [6] it was 90%. The pest or weed control at 250 g/ha in experiment [7] was found to be 0%; in experiment [8] it was 90%; in experiment [9] it was 100%; in experiment [10] it was 100%.
Regarding `Cc1sc(-c2ccc(C(C)C)cc2)nc1C1C(=O)[C@@H]2[C@H](C1=O)[C@H]1CC[C@@H]2O1` (some centres unmarked) [Compound T51], the pest or weed control at 250 g/ha turned out to be 80% in [1]; 0% in experiment [2]; 90% in [3]; 100% in experiment [4]; 100% in [5]; 90% in experiment [6]. The pest or weed control at 250 g/ha in [7] is 0%; in experiment [8] it was 80%; in experiment [9], 100%; in experiment [10], 90%.
With `Cc1sc(-c2ccc(OC(F)F)cc2Cl)nc1C1C(=O)[C@@H]2[C@H](C1=O)[C@H]1CC[C@@H]2O1` (some centres unmarked) [Compound T52], the pest or weed control at 250 g/ha in experiment [1] turned out to be 70%; in experiment [2], 0%; in [3] it was 90%; in experiment [4], 100%; in experiment [5], 100%; in experiment [6], 100%. For the same molecule, the pest or weed control at 250 g/ha stood at 0% in [7], 100% in experiment [8], 100% in [9] and 100% in experiment [10].
On to `Cc1cnc(-c2ccc(Cl)cc2)nc1C1C(=O)[C@@H]2[C@H](C1=O)[C@H]1CC[C@@H]2O1` (some centres unmarked) [Compound T53], for which the pest or weed control at 250 g/ha in experiment [1] was 50%; in experiment [2] it was 90%; in experiment [3] it was 70%; in experiment [4], 80%; in [5], 90%; in [6], 60%. The pest or weed control at 250 g/ha in experiment [7] was determined as 0%; in experiment [8] it was 70%; in [9], 90%; in experiment [10], 100%.
